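Results reflect a 48-hour exposure of cells in 96-well plates to compound at five concentrations. Definition used: TGI = concentration required for complete inhibition of growth.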
Key:
Test in all cases: growth of human tumour cells (NCI), 48 h
SW-620 colon = tested on: SW-620 colon
A498 renal = tested on: A498 renal
SN12C renal = tested on: SN12C renal
UACC-257 melanoma = tested on: UACC-257 melanoma
ACHN renal = tested on: ACHN renal
SF-295 CNS = tested on: SF-295 CNS
HCC-2998 colon = tested on: HCC-2998 colon
MALME-3M melanoma = tested on: MALME-3M melanoma
KM12 colon = tested on: KM12 colon
UO-31 renal = tested on: UO-31 renal
HS 578T breast = tested on: HS 578T breast
PC-3 prostate = tested on: PC-3 prostate
M14 melanoma = tested on: M14 melanoma

Compound `O=C1CCc2ccc(O)c(c2)Oc2ccc(cc2)C(Sc2ccccc2)CCO1` (configuration not stated) has a TGI (SW-620 colon) of 34.9 µM, a TGI (A498 renal) of 31.8 µM and a TGI (SN12C renal) of 29.7 µM. It also gave a TGI (UACC-257 melanoma) of 32.6 µM, a TGI (ACHN renal) of 32.1 µM and a TGI (SF-295 CNS) of 38.2 µM. For the same compound, the TGI (HCC-2998 colon) was 32.9 µM, the TGI (MALME-3M melanoma) was 27.9 µM and the TGI (KM12 colon) was 29.5 µM. It also gave a TGI (UO-31 renal) of 33.4 µM, a TGI (HS 578T breast) of 36.2 µM and a TGI (PC-3 prostate) of 35.1 µM. It also gave a TGI (M14 melanoma) of 32.1 µM.
In the case of `CN(C)c1c(C2OC(CO)C(O)C2O)c(=O)c1=O` (configuration not stated), the TGI (SW-620 colon) is reported as > 100 µM, the TGI (A498 renal) is reported as > 100 µM and the TGI (SN12C renal) is reported as > 100 µM. For the same compound, the TGI (UACC-257 melanoma) was > 100 µM, the TGI (ACHN renal) was > 100 µM and the TGI (SF-295 CNS) was > 55.4 µM. The TGI (HCC-2998 colon) was > 100 µM, the TGI (MALME-3M melanoma) was > 100 µM and the TGI (KM12 colon) was > 100 µM. The TGI (UO-31 renal) was > 100 µM, the TGI (HS 578T breast) was > 100 µM and the TGI (PC-3 prostate) was > 100 µM. For the same compound, the TGI (M14 melanoma) was > 100 µM.
`COC(C)(C)/C=C/c1[nH]c2ccccc2c1CC(=O)NCCc1cn(C(c2ccccc2)(c2ccccc2)c2ccccc2)cn1` was tested, and the TGI (SW-620 colon) was > 100 µM, the TGI (A498 renal) was 12.9 µM and the TGI (SN12C renal) was 19.2 µM. For the same compound, the TGI (UACC-257 melanoma) was 24.9 µM, the TGI (ACHN renal) was > 100 µM and the TGI (SF-295 CNS) was > 31.3 µM. For the same compound, the TGI (HCC-2998 colon) was 2.95 µM, the TGI (MALME-3M melanoma) was 11.7 µM and the TGI (KM12 colon) was > 87.3 µM. For the same compound, the TGI (UO-31 renal) was 61.8 µM, the TGI (HS 578T breast) was 60.2 µM and the TGI (PC-3 prostate) was 10.6 µM. For the same compound, the TGI (M14 melanoma) was 17.3 µM.
For `COC(=O)CCNC(=O)OCc1ccccc1`, the TGI (SW-620 colon) was > 100 µM, the TGI (A498 renal) was > 100 µM and the TGI (SN12C renal) was > 100 µM. For the same compound, the TGI (UACC-257 melanoma) was > 100 µM, the TGI (ACHN renal) was > 100 µM and the TGI (SF-295 CNS) was > 100 µM. For the same compound, the TGI (HCC-2998 colon) was > 100 µM, the TGI (MALME-3M melanoma) was > 100 µM and the TGI (KM12 colon) was > 100 µM. For the same compound, the TGI (UO-31 renal) was > 100 µM, the TGI (HS 578T breast) was > 100 µM and the TGI (PC-3 prostate) was > 100 µM. The TGI (M14 melanoma) was > 100 µM.
For `OC(CN(CCCl)CCCl)C(O)C(O)C(O)CN(CCCl)CCCl` (configuration not stated), the TGI (SW-620 colon) was > 100 µM, the TGI (A498 renal) was > 100 µM and the TGI (SN12C renal) was > 100 µM. For the same compound, the TGI (UACC-257 melanoma) was > 100 µM, the TGI (ACHN renal) was 17.3 µM and the TGI (HCC-2998 colon) was > 100 µM. For the same compound, the TGI (MALME-3M melanoma) was > 100 µM, the TGI (KM12 colon) was > 100 µM and the TGI (UO-31 renal) was > 100 µM. For the same compound, the TGI (HS 578T breast) was > 100 µM, the TGI (PC-3 prostate) was > 100 µM and the TGI (M14 melanoma) was > 100 µM.
`N[C@@H]1CCN(c2c(F)cc3c(=O)c(C(=O)O)cn4c3c2Oc2cc3c(ccc5ccccc53)cc2-4)C1` was tested, and the TGI (SW-620 colon) was > 100 µM, the TGI (A498 renal) was > 44.8 µM and the TGI (SN12C renal) was > 100 µM. The TGI (ACHN renal) was > 41.7 µM, the TGI (SF-295 CNS) was > 100 µM and the TGI (MALME-3M melanoma) was 23 µM. The TGI (KM12 colon) was > 100 µM, the TGI (UO-31 renal) was > 100 µM and the TGI (HS 578T breast) was > 100 µM. The TGI (PC-3 prostate) was > 28.2 µM and the TGI (M14 melanoma) was > 100 µM.
For `O=[S@]1c2ccc3ccccc3c2N[C@@H]2[C@H]1[C@H]1C=C[C@@H]2C1`, the TGI (SW-620 colon) was > 100 µM, the TGI (A498 renal) was > 100 µM and the TGI (SN12C renal) was > 100 µM. The TGI (UACC-257 melanoma) was > 100 µM, the TGI (ACHN renal) was > 100 µM and the TGI (SF-295 CNS) was > 100 µM. For the same compound, the TGI (MALME-3M melanoma) was > 100 µM, the TGI (KM12 colon) was > 100 µM and the TGI (UO-31 renal) was > 100 µM. For the same compound, the TGI (HS 578T breast) was > 100 µM, the TGI (PC-3 prostate) was > 100 µM and the TGI (M14 melanoma) was > 100 µM.
In the case of `COc1ccc2c(c1)CCCN1CCc3ccccc3C21` (configuration not stated), the TGI (SW-620 colon) is reported as > 100 µM, the TGI (A498 renal) is reported as > 100 µM and the TGI (SN12C renal) is reported as 77.7 µM. The TGI (UACC-257 melanoma) was > 100 µM, the TGI (ACHN renal) was > 100 µM and the TGI (SF-295 CNS) was 79.1 µM. For the same compound, the TGI (HCC-2998 colon) was > 100 µM, the TGI (MALME-3M melanoma) was > 100 µM and the TGI (KM12 colon) was > 100 µM. The TGI (HS 578T breast) was 94 µM, the TGI (PC-3 prostate) was > 100 µM and the TGI (M14 melanoma) was 51.5 µM.
`CN(CCCNC(=O)c1cn(C)c2c1Cc1ccccc1-2)CCCNC(=O)c1cn(C)c2c1Cc1ccccc1-2` gave a TGI (SW-620 colon) of 18.5 µM, a TGI (A498 renal) of 26.8 µM and a TGI (SN12C renal) of 27 µM. It also gave a TGI (UACC-257 melanoma) of 18.9 µM, a TGI (ACHN renal) of 22.9 µM and a TGI (SF-295 CNS) of 26.2 µM. For the same compound, the TGI (MALME-3M melanoma) was 24.5 µM, the TGI (KM12 colon) was 26.9 µM and the TGI (UO-31 renal) was 21.8 µM. The TGI (HS 578T breast) was 25.2 µM, the TGI (PC-3 prostate) was 22.7 µM and the TGI (M14 melanoma) was 11.6 µM.
For `CCOC(=O)c1nc2cc(C(F)(F)F)ccc2nc1Nc1ccc(C(=O)OC)s1`, the TGI (SW-620 colon) was > 100 µM, the TGI (A498 renal) was 81.6 µM and the TGI (UACC-257 melanoma) was > 100 µM. For the same compound, the TGI (ACHN renal) was > 100 µM, the TGI (SF-295 CNS) was > 100 µM and the TGI (HCC-2998 colon) was > 100 µM. For the same compound, the TGI (MALME-3M melanoma) was > 100 µM, the TGI (KM12 colon) was > 100 µM and the TGI (UO-31 renal) was > 100 µM. The TGI (HS 578T breast) was > 100 µM, the TGI (PC-3 prostate) was > 100 µM and the TGI (M14 melanoma) was > 100 µM.
In the case of `COc1ccc(-c2c3c(n(C4OC(CO)C(O)C(O)C4O)c(=S)c2C#N)CCCC3)cc1` (configuration not stated), the TGI (SW-620 colon) is reported as > 100 µM, the TGI (A498 renal) is reported as > 100 µM and the TGI (SN12C renal) is reported as > 100 µM. For the same compound, the TGI (UACC-257 melanoma) was > 100 µM, the TGI (ACHN renal) was > 100 µM and the TGI (SF-295 CNS) was > 100 µM. The TGI (HCC-2998 colon) was > 100 µM, the TGI (MALME-3M melanoma) was > 100 µM and the TGI (KM12 colon) was > 100 µM. The TGI (HS 578T breast) was > 100 µM, the TGI (PC-3 prostate) was > 100 µM and the TGI (M14 melanoma) was > 100 µM.
`CC(=O)OCC(=O)OC[C@H](OCc1ccccc1)[C@@H]1[C@H](OC(C)=O)C(=O)N1Cc1ccccc1` was tested, and the TGI (SW-620 colon) was > 100 µM, the TGI (A498 renal) was > 100 µM and the TGI (SN12C renal) was > 100 µM. For the same compound, the TGI (UACC-257 melanoma) was > 100 µM, the TGI (ACHN renal) was > 100 µM and the TGI (SF-295 CNS) was > 100 µM. For the same compound, the TGI (MALME-3M melanoma) was > 100 µM, the TGI (KM12 colon) was > 100 µM and the TGI (UO-31 renal) was > 100 µM. The TGI (HS 578T breast) was > 100 µM, the TGI (PC-3 prostate) was > 100 µM and the TGI (M14 melanoma) was > 100 µM.
`O=C1NN(Cc2ccccc2)C(=O)N2CCC[C@@H]12` was tested, and the TGI (SW-620 colon) was > 100 µM, the TGI (A498 renal) was > 100 µM and the TGI (SN12C renal) was > 100 µM. For the same compound, the TGI (UACC-257 melanoma) was > 100 µM, the TGI (ACHN renal) was > 100 µM and the TGI (SF-295 CNS) was > 100 µM. For the same compound, the TGI (HCC-2998 colon) was > 100 µM, the TGI (MALME-3M melanoma) was > 100 µM and the TGI (KM12 colon) was > 100 µM. The TGI (HS 578T breast) was > 100 µM, the TGI (PC-3 prostate) was > 100 µM and the TGI (M14 melanoma) was > 100 µM.
In the case of `O=C1/C(=C/c2ccccc2[N+](=O)[O-])N=C(c2ccccc2)N1c1nc2ccccc2s1`, the TGI (SW-620 colon) is reported as > 100 µM, the TGI (A498 renal) is reported as 72.1 µM and the TGI (SN12C renal) is reported as 64.3 µM. For the same compound, the TGI (UACC-257 melanoma) was > 100 µM, the TGI (ACHN renal) was 82.1 µM and the TGI (SF-295 CNS) was > 100 µM. The TGI (HCC-2998 colon) was 43.1 µM, the TGI (KM12 colon) was 43.5 µM and the TGI (UO-31 renal) was > 100 µM. For the same compound, the TGI (HS 578T breast) was 62.4 µM, the TGI (PC-3 prostate) was > 100 µM and the TGI (M14 melanoma) was > 100 µM.
`NC1CCC(N(CC(=O)O)CC(=O)O)C(N(CC(=O)O)CC(=O)O)C1` (configuration not stated) was tested, and the TGI (SW-620 colon) was > 100 µM, the TGI (A498 renal) was > 100 µM and the TGI (SN12C renal) was > 100 µM. The TGI (ACHN renal) was > 100 µM, the TGI (SF-295 CNS) was > 100 µM and the TGI (HCC-2998 colon) was > 100 µM. The TGI (MALME-3M melanoma) was > 100 µM, the TGI (KM12 colon) was > 100 µM and the TGI (UO-31 renal) was > 100 µM. For the same compound, the TGI (HS 578T breast) was > 100 µM and the TGI (PC-3 prostate) was > 100 µM.

From PubChem BioAssay (NCI)
